Reference: patent US20220380347A1, “INHIBITORS OF CYSTEINE PROTEASES AND METHODS OF USE THEREOF” (Pardes Biosciences, Inc., priority 2020, published 2022)
Like-named read-outs stand apart in the source and are kept apart here.

Columns and labels:
229E Mpro = 229E Mpro (Human coronavirus 229E, UniProt P0C6X1); experiment: 229E Mpro enzymatic assay (standard methods, SARS-CoV2 Mpro assay given as exemplary); format: biochemical, human coronavirus (HCov) 229E
Procedure, shortened: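 IC50 for 229E Mpro by standard methods; exemplary SARS-CoV-2 protocol used C-His6-tagged Mpro from E. coli, 25 nM enzyme, 25 μM substrate (Km 13.5 μM), in Tris-HCl pH 7.3, NaCl, EDTA, TCEP, 0.1% BSA. Inhibition normalised to no-compound and full-effect controls; four-parameter fit.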

[1] = biological target: COVID-19 (nCoV-2019, SARS-CoV2) Mpro (Severe acute respiratory syndrome coronavirus 2, UniProt P0DTD1); experiment: COVID-19 (nCoV-2019, SARS-CoV2) Mpro enzymatic assay; format: biochemical; settings: 25 μM substrate
HCov OC43 = experiment: HCoV OC43 cytopathic effect (CPE) assay, CellTiter Glo; format: cell-based, human coronavirus (HCov) OC43; settings: Betacoronavirus 1, OC43, read-out: OC43 IC50 (uM) MEDIAN, median
[2] = 25 nM Mpro, read-out: COVID-19 Mpro IC50

Chain of 229E Mpro (P0C6X1 2966-3267): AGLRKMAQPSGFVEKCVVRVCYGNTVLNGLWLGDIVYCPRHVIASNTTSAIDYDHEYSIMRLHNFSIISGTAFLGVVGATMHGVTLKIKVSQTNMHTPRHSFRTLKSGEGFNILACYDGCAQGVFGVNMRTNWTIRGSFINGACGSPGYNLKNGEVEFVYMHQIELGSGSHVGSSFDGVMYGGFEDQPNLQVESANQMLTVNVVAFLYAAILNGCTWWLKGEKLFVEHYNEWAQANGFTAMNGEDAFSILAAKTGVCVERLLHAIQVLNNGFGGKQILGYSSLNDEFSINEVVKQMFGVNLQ

Row | SMILES | EC50 (229E Mpro; 229E Mpro EC50) [µM] | IC50 [1, 2] [µM] | IC50 (HCov OC43) [µM] | EC50 (229E Mpro; read-out: 229E Mpro EC50) [µM] | IC50 ([1]; COVID-19 Mpro IC50, 25 nM Mpro) [µM]
1 | CC(C)(C)OC(=O)N1CCN(C(=O)C(c2cccnc2)N(C(=O)[C@H]2CCCN2C#N)c2ccc(C(C)(C)C)cc2)CC1 (stereo partly drawn) [Compound 954b] | 2 to 10 | 2 to 10 | 2 to 10 |  | 
2 | CN1CN(C(=O)C(c2cccnc2)N(C(=O)[C@H]2CCCN2C#N)c2ccc(C(C)(C)C)cc2)CC1=O (stereo partly drawn) [Compound 962, (2R)—N-(4-(tert-butyl)phenyl)-1-cyano-N-(2-(3-methyl-4-oxoimidazolidin-1-yl)-2-oxo-1-(pyridin-3-yl)ethyl)pyrrolidine-2-carboxamide] | 2 to 10 | 10 to 30 | 10 to 30 |  | 
3 | CC(C)(C)c1ccc(N(C(=O)[C@H]2CCCN2C#N)C(C(=O)N2CCC(N)CC2)c2cccnc2)cc1 (stereo partly drawn) [Compound 966] | > 30 | > 30 | > 30 |  | 
4 | CC(C)(C)OC(=O)NC1CCN(C(=O)C(c2cccnc2)N(C(=O)[C@H]2CCCN2C#N)c2ccc(C(C)(C)C)cc2)CC1 (stereo partly drawn) [Compound 966b] | 2 to 10 | 10 to 30 | 10 to 30 |  | 
5 | CN(C)C1CN(C(=O)C(c2cccnc2)N(C(=O)[C@H]2CCCN2C#N)c2ccc(C(C)(C)C)cc2)C1 (stereo partly drawn) [Compound 975, (2R)—N-(4-(tert-butyl)phenyl)-1-cyano-N-(2-(3-(dimethylamino)azetidin-1-yl)-2-oxo-1-(pyridin-3-yl)ethyl)pyrrolidine-2-carboxamide] | 2 to 10 | 10 to 30 | 10 to 30 |  | 
6 | Cc1ccncc1C(C(=O)NC1CCC(F)(F)CC1)N(C(=O)[C@H]1C[C@@](C)(O)CN1C#N)c1ccc(S(F)(F)(F)(F)F)cc1 (stereo partly drawn) [Compound 993c, (2R,4R)-1-cyano-N-[2-[(4,4-difluorocyclohexyl)amino]-1-(4-methyl-3-pyridyl)-2-oxo-ethyl]-4-hydroxy-4-methyl-N-[4-(pentafluoro-λ6-sulfanyl)phenyl]pyrrolidine-2-carboxamide] | < 2 | < 2 | 2 to 10 |  | 
7 | Cc1ccnc(C)c1C(C(=O)NC1CCC(F)(F)CC1)N(C(=O)[C@H]1C[C@@](C)(O)CN1C#N)c1ccc(S(F)(F)(F)(F)F)cc1 (stereo partly drawn) [Compound 997c, (2R,4R)-1-cyano-N-[2-[(4,4-difluorocyclohexyl)amino]-1-(2,4-dimethyl-3-pyridyl)-2-oxo-ethyl]-4-hydroxy-4-methyl-N-[4-(pentafluoro-λ^6-sulfanyl)phenyl]pyrrolidine-2-carboxamide] | < 2 | 10 to 30 | 2 to 10 |  | 
8 | CC(C(=O)NC1CCC(F)(F)CC1)(c1cccnc1)N(C(=O)[C@H]1C[C@@](C)(O)CN1C#N)c1ccc(S(F)(F)(F)(F)F)cc1 (stereo partly drawn) [Compound 1077, (2R,4R)-1-cyano-N-[2-[(4,4-difluorocyclohexyl)amino]-1-methyl-2-oxo-1-(3-pyridyl)ethyl]-4-hydroxy-4-methyl-N-[4-(pentafluoro-λ^6-sulfanyl)phenyl]pyrrolidine-2-carboxamide] | < 2 | < 2 | < 2 |  | 
9 | N#CN1C[C@H]2C[C@H]2[C@@H]1C(=O)N(c1ccc(S(F)(F)(F)(F)F)cc1)C(C(=O)NC1CCC(F)(F)CC1)c1cncc(F)c1 (stereo partly drawn) [Compound 1095b, (1R,2R,5S)-3-cyano-N-[2-[(4,4-difluorocyclohexyl)amino]-1-(5-fluoro-3-pyridyl)-2-oxo-ethyl]-N-[4-(pentafluoro-λ^6-sulfanyl)phenyl]-3-azabicyclo[3.1.0]hexane-2-carboxamide] | < 2 | < 2 | < 2 |  | 
10 | N#CN1C2CCC1(C(=O)N(c1ccc(S(F)(F)(F)(F)F)cc1)C(C(=O)NC1CCC(F)(F)CC1)c1cncc(F)c1)CC2 (stereo not drawn) [Compound 1101, 7-cyano-N-[2-[(4,4-difluorocyclohexyl)amino]-1-(5-fluoro-3-pyridyl)-2-oxo-ethyl]-N-[4-(pentafluoro-λ6-sulfanyl)phenyl]-7-azabicyclo[2.2.1]heptane-1-carboxamide] |  |  | > 30 | 2 to 10 | > 30
11 | O=C1CCCCC1C(=O)N(c1ccc(S(F)(F)(F)(F)F)cc1)C(C(=O)NC1CCC(F)(F)CC1)c1cncc(F)c1 (stereo not drawn) [Compound 1114] | 2 to 10 | 10 to 30 | > 30 |  | 
12 | CO[C@@H]1C[C@H](C(=O)N(c2ccc(S(F)(F)(F)(F)F)cc2)C(C(=O)NC(C)C2CCCCN2)c2cccnc2)N(C#N)C1 (stereo partly drawn) [Compound 1123, (2R,4R)-1-cyano-4-methoxy-N-[2-oxo-2-[1-(2-piperidyl)ethylamino]-1-(3-pyridyl)ethyl]-N-[4-(pentafluoro-λ^6-sulfanyl)phenyl]pyrrolidine-2-carboxamide] | < 2 | < 2 | < 2 |  | 
13 | O=C(NC1CCC(F)(F)CC1)C(c1cncc(F)c1)N(C(=O)C1CCC1(O)O)c1ccc(S(F)(F)(F)(F)F)cc1 (stereo not drawn) [Compound 1133a, N-[2-[(4,4-difluorocyclohexyl)amino]-1-(5-fluoro-3-pyridyl)-2-oxo-ethyl]-2,2-dihydroxy-N-[4-(pentafluoro-λ6-sulfanyl)phenyl]cyclobutanecarboxamide] | > 30 | > 30 | > 30 |  | 
14 | COC1CN(C#N)C(C)(C(=O)N(c2ccc(S(F)(F)(F)(F)F)cc2)C(C(=O)NC2CCC(F)(F)CC2)c2cncc(F)c2)C1 (stereo not drawn) [Compound 1135b, 1-cyano-N-[2-[(4,4-difluorocyclohexyl)amino]-1-(5-fluoro-3-pyridyl)-2-oxo-ethyl]-4-methoxy-2-methyl-N-[4-(pentafluoro-λ^6-sulfanyl)phenyl]pyrrolidine-2-carboxamide] | > 30 | > 30 | > 30 |  | 
15 | N#CN1CC2C[C@@]1(C(=O)N(c1ccc(S(F)(F)(F)(F)F)cc1)C(C(=O)NC1CCC(F)(F)CC1)c1cncc(F)c1)CO2 (stereo partly drawn) [Compound 1136b] | 2 to 10 | 2 to 10 | > 30 |  | 
16 | CO[C@@H]1C[C@H](C(=O)N(c2ccc(S(F)(F)(F)(F)F)cc2)C(C(=O)N2CCN(C(=O)OC(C)(C)C)CC2)c2cccnc2)N(C#N)C1 (stereo partly drawn) [Compound 1149b, tert-butyl-4-[2-[N-[(2R,4R)-1-cyano-4-methoxy-pyrrolidine-2-carbonyl]-4-(pentafluoro-λ6-sulfanyl)anilino]-2-(3-pyridyl)acetyl]piperazine-1-carboxylate] | < 2 | < 2 | < 2 |  | 
17 | C[C@@]1(O)C[C@H](C(=O)N(c2ccc(S(F)(F)(F)(F)F)cc2)C(C(=O)NC2CCC(F)(F)CC2)c2cccnc2F)N(C#N)C1 (stereo partly drawn) [Compound 1158, (2R,4R)-1-cyano-N-[2-[(4,4-difluorocyclohexyl)amino]-1-(2-fluoro-3-pyridyl)-2-oxo-ethyl]-4-hydroxy-4-methyl-N-[4-(pentafluoro-λ6-sulfanyl)phenyl]pyrrolidine-2-carboxamide] | < 2 | < 2 | < 2 |  | 
18 | N#CN1CC(=O)NCC1C(=O)N(c1ccc(S(F)(F)(F)(F)F)cc1)C(C(=O)NC1CCC(F)(F)CC1)c1cncc(F)c1 (stereo not drawn) [Compound 1160, 1-cyano-N-[2-[(4,4-difluorocyclohexyl)amino]-1-(5-fluoro-3-pyridyl)-2-oxo-ethyl]-5-oxo-N-[4-(pentafluoro-λ^6-sulfanyl)phenyl]piperazine-2-carboxamide] | < 2 | < 2 | < 2 |  | 
